Two compounds from ChEMBL document CHEMBL5360614, “Quinoline Thiourea-Based Zinc Ionophores with Antibacterial Activity” (J Med Chem, 2023) can be followed below.

In general, MIC refers to the lowest concentration found to suppress growth.

Series [1] has as its system Staphylococcus aureus. Kind of series: Bactericidal activity against Staphylococcus aureus MTCC-96 at 2 times MIC incubated for 2 hrs by time kill assay. Format: functional, organism-based.
Series [2] concerns Staphylococcus aureus. Kind of series: Antibacterial activity against gentamicin-and methicillin-resistant Staphylococcus aureus ATCC 33592 assessed as reduction in bacterial growth incubated for 14 to 16 hrs in presence of 100 uM ZnCl2 by microbroth dilution method. Format: functional. The note with it: time 14-16 hrs.
Series [3] deals with Staphylococcus aureus. Kind of series: Antibacterial activity against gentamicin-and methicillin-resistant Staphylococcus aureus ATCC 33592 assessed as reduction in bacterial growth incubated for 14 to 16 hrs in presence of 400 uM ZnCl2 by microbroth dilution method. It is filed as functional. The note with it: time 14-16 hrs.
The test system of series [4] is Lipid bilayer. Nature of the series: Induction of ionophore activity across EYPC:CHOL (8:2) large unilamellar vesicles assessed as transmembrane Zn2+ ion transport by measuring fluorescence intensity for CFZ dye at 10 uM preincubated for 3 mins followed by ZnCl2 addition and mesured after 7.5 mins by CFZ dye based fluorescence spectrophotometric analysis. The note with it: filed as opener, time 10.5 min.

Series [5] deals with Staphylococcus aureus. Nature of the series: In vivo antibacterial activity against Staphylococcus aureus MTCC-96 infected in Balb/c mouse assessed as bacterial load by measuring CFU in liver at 156.5 microM/Kg, iv for 7 days by CFU assay (Rvb= 719 CFU). To be noted: time 7 day. Format: functional.
Series [6] has as its system Staphylococcus aureus. Kind of series: Induction of intracellular ROS generation in Staphylococcus aureus MTCC-96 assessed as change in fluorescence intensity at 1 uM incubated for 30 mins in presence of Zn2+ ions by DCF-DA staining based fluorescence spectroscopic analysis. Format: functional, organism-based.
In a further series the test system is Cell membrane. Nature of the series: Induction of ionophore activity across Staphylococcus aureus MTCC-96 cell membrane assessed as AQZ directed Zn2+ ion transport by measuring increase in AQZ fluorescence intensity in presence of ZnCl2 and 2-((2-(2-hydroxyethoxy)ethyl)-amino)-N-(quinolin-8-yl)acetamide by fluorescence analysis. It is filed as subcellular. The note with it: filed as opener.

In series [7] the test system is Staphylococcus aureus. Kind of series: In vivo antibacterial activity against Staphylococcus aureus MTCC-96 infected in Balb/c mouse assessed as uniform distribution of hepatocytes in liver tissue at 31.6 microM/Kg, iv for 7 days in presence of ZnCl2 by hematoxylin and eosin staining based microscopic analysis. It is filed as functional, organism-based. The note with it: time 7.0 day.

In series [8] the test system is Staphylococcus aureus. Kind of series: In vivo antibacterial activity against Staphylococcus aureus MTCC-96 infected in Balb/c mouse assessed as reduction in bacterial load by measuring CFU in spleen at 31.6 microM/Kg, iv for 7 days in presence of ZnCl2 by CFU assay. It is filed as functional, organism-based. The note with it: time 7.0 day.
For series [9], the system named is Lipid bilayer. Kind of series: Induction of ionophore activity across EYPC:CHOL (8:2) large unilamellar vesicles assessed as transmembrane Zn2+ ion transport by measuring decrease in fluorescence intensity for HPTS dye upto 25 uM preincubated for 3 mins followed by ZnCl2 addition and mesured after 7.5 mins by HPTS dye based fluorescence spectrophotometric analysis. To be noted: filed as opener, time 10.5 min.

In series [10] the test system is Staphylococcus aureus. Kind of series: In vivo antibacterial activity against Staphylococcus aureus MTCC-96 infected in Balb/c mouse assessed as normal architecture of portal vein in liver tissue at 31.6 microM/Kg, iv for 7 days in presence of ZnCl2 by hematoxylin and eosin staining based microscopic analysis. The note with it: time 7.0 day. It is filed as functional, organism-based.

For a further series, the system named is PBMC. Nature of the series: Cytotoxicity against human PBMC cells assessed as reduction in cell viability at 12.5 to 200 uM incubated for 24 hrs in presence of ZnCl2 by MTT assay. It is filed as toxicity, cell-based. To be noted: dose 12.5-200 µM. (Formazan colour is commonly taken as a measure of viable cells.)
The test system of series [11] is Lipid bilayer. Nature of the series: Induction of ionophore activity across EYPC:CHOL (8:2) large unilamellar vesicles assessed as transmembrane Zn2+ ion transport by measuring fluorescence intensity for CFZ dye at 5 to 20 uM preincubated for 3 mins followed by ZnCl2 addition and mesured after 7.5 mins by CFZ dye based fluorescence spectrophotometric analysis. The note with it: filed as opener; dose 5-20 µM, time 10.5 min.

Series [12] has as its system Staphylococcus aureus. Nature of the series: Induction of intracellular ROS generation in Staphylococcus aureus MTCC-96 at 1 uM incubated for 30 mins in presence of Zn2+ ions by DCF-DA staining based fluorescence microscopic analysis. It is filed as functional, organism-based.
Series [13] relates to Staphylococcus aureus. Nature of the series: In vivo antibacterial activity against Staphylococcus aureus MTCC-96 infected in Balb/c mouse assessed as liver central vein with minimum infiltration at 156.5 microM/Kg, iv for 7 days by hematoxylin and eosin staining based microscopic analysis. Format: functional, organism-based. To be noted: time 7.0 day.
Series [14] relates to Staphylococcus aureus. Kind of series: Bactericidal activity against Staphylococcus aureus MTCC-96 at 2 times MIC incubated for 1 hrs in presence of ZnCl2 by time kill assay. It is filed as functional, organism-based.
Series [15] has as its system Staphylococcus aureus. Kind of series: In vivo antibacterial activity against Staphylococcus aureus MTCC-96 infected in Balb/c mouse assessed as hepatocyte distribution at 156.5 microM/Kg, iv for 7 days by hematoxylin and eosin staining based microscopic analysis. Format: functional, organism-based. To be noted: time 7.0 day.
For series [16], the system named is Staphylococcus aureus. Kind of series: In vivo antibacterial activity against Staphylococcus aureus MTCC-96 infected in Balb/c mouse assessed as uniform distribution of hepatic lobules in liver tissue at 31.6 microM/Kg, iv for 7 days in presence of ZnCl2 by hematoxylin and eosin staining based microscopic analysis. To be noted: time 7.0 day. It is filed as functional, organism-based.

In series [17] the test system is Staphylococcus aureus. Nature of the series: In vivo antibacterial activity against Staphylococcus aureus MTCC-96 infected in Balb/c mouse assessed as uniform distribution of hepatic lobules in liver tissue at 156.5 microM/Kg, iv for 7 days by hematoxylin and eosin staining based microscopic analysis. To be noted: time 7.0 day. It is filed as functional, organism-based.

Series [18] deals with Lipid bilayer. Nature of the series: Induction of ionophore activity across EYPC:CHOL (8:2) large unilamellar vesicles assessed as transmembrane Zn2+ ion transport by measuring decrease in fluorescence intensity for HPTS dye at 25 uM preincubated for 3 mins followed by 1 to 25 mM ZnCl2 addition and mesured after 7.5 mins by HPTS dye based fluorescence spectrophotometric analysis. To be noted: filed as opener, time 10.5 min.

For series [19], the system named is Staphylococcus aureus. Kind of series: In vivo antibacterial activity against Staphylococcus aureus MTCC-96 infected in Balb/c mouse assessed as normal morphology of spleen tissue at 156.5 microM/Kg, iv for 7 days by hematoxylin and eosin staining based microscopic analysis. It is filed as functional, organism-based. The note with it: time 7.0 day.

The source made the active and inactive calls. The rule behind the calls is not given here.

For `FC(F)(F)c1cc(NC(=S)Nc2cccc3cccnc23)cc(C(F)(F)F)c1`, in the series on Staphylococcus aureus [1], the outcome was Active.

For the compound `FC(F)(F)c1cc(NC(=S)Nc2cccc3ccc(-n4cnc5ccccc54)nc23)cc(C(F)(F)F)c1`, the minimum inhibitory concentration (MIC) in the series on Staphylococcus aureus [2] stood at 3.13 µM; with Staphylococcus aureus [3], 2 µM. In addition, the outcome with Lipid bilayer [4], with Staphylococcus aureus [6], with Cell membrane, with Staphylococcus aureus [7], in the series on Staphylococcus aureus [8] and in the series with Lipid bilayer [9] was Active. Also, the outcome in the series on Staphylococcus aureus [10], in the series on Staphylococcus aureus [12], in the series on Staphylococcus aureus [13], with Staphylococcus aureus [14], in the series on Staphylococcus aureus [15] and in the series with Staphylococcus aureus [16] was Active. Further, the outcome in the series with Staphylococcus aureus [17], in the series on Lipid bilayer [18] and in the series with Staphylococcus aureus [19] was Active. Further, the Activity with Staphylococcus aureus [5] was 46 CFU; in the series with PBMC, “Non-Toxic”; in the series on Lipid bilayer [11], “Dose-Dependent Effect”.
